Test results as given in ChEMBL document CHEMBL1122304, “Synthesis and antiallergy activity of 5-oxo-5H-thiazolo[2,3-b]quinazolinecarboxylic acids” (1983).

Key:
Type in all cases: functional
[1] = tested on: Rattus norvegicus; experiment: Antiallergic activity in the rat passive cutaneous anaphylaxis (PCA) test upon peroral administration; conditions: po, read-out: ID50 (the source's name)
[2] = tested on: Rattus norvegicus; experiment: Antiallergic activity in the rat passive cutaneous anaphylaxis (PCA) test at 32 mg/kg upon peroral administration; conditions: route oral
[3] = tested on: Rattus norvegicus; experiment: Antiallergic activity in the rat passive cutaneous anaphylaxis (PCA) test at 16 mg/kg upon intraperitoneal administration; conditions: ip
[4] = tested on: Rattus norvegicus; experiment: Antiallergic activity in the rat passive cutaneous anaphylaxis (PCA) test upon peroral administration; (range of 0.89-6.85); conditions: po, read-out: ID50 (the source's name)
[5] = tested on: Rattus norvegicus; experiment: Antiallergic activity in the rat passive cutaneous anaphylaxis (PCA) test at 32 mg/kg upon peroral administration after 10-minute pretreatment time; conditions: route oral
[6] = tested on: Rattus norvegicus; experiment: Antiallergic activity in the rat passive cutaneous anaphylaxis (PCA) test upon intraperitoneal administration of 16 mg/kg of the compound; conditions: ip
[7] = tested on: Rattus norvegicus; experiment: Antiallergic activity in the rat passive cutaneous anaphylaxis (PCA) test upon peroral administration; (range = 0.98-4.02); conditions: po, read-out: ID50 (the source's name)
[8] = tested on: Rattus norvegicus; experiment: Antiallergic activity in the rat passive cutaneous anaphylaxis (PCA) test at 32 mg/kg upon peroral administration with a 10-minute pretreatment time; conditions: route oral
[9] = tested on: Rattus norvegicus; experiment: Antiallergic activity in the rat passive cutaneous anaphylaxis (PCA) test upon peroral administration;(range = 0.07-0.23); conditions: po, read-out: ID50 (the source's name)
[10] = tested on: Rattus norvegicus; experiment: Antiallergic activity in the rat passive cutaneous anaphylaxis (PCA) test upon peroral administration; (range = 0.08-0.18); conditions: po, read-out: ID50 (the source's name)
[11] = tested on: Rattus norvegicus; experiment: Antiallergic activity in the rat passive cutaneous anaphylaxis (PCA) test upon peroral administration; (range = 0.58-1.91); conditions: po, read-out: ID50 (the source's name)
[12] = tested on: Rattus norvegicus; experiment: Antiallergic activity in the rat passive cutaneous anaphylaxis (PCA) test upon peroral administration; (range = 0.04-0.14); conditions: po, read-out: ID50 (the source's name)
[13] = tested on: Rattus norvegicus; experiment: Antiallergic activity in the rat passive cutaneous anaphylaxis (PCA) test upon peroral administration; (range = 0.18-0.61); conditions: po, read-out: ID50 (the source's name)
[14] = tested on: Rattus norvegicus; experiment: Antiallergic activity in the rat passive cutaneous anaphylaxis (PCA) test upon peroral administration; (range = 2.14-29.01); conditions: po, read-out: ID50 (the source's name)
[15] = tested on: Rattus norvegicus; experiment: Antiallergic activity in the rat passive cutaneous anaphylaxis (PCA) test upon intraperitoneal administration of 8 mg/kg of the compound; conditions: ip

Cc1cn2c(=O)c3cc(C(=O)O)ccc3nc2s1
ED50 [1]: > 10 mg/kg | inhibition in vivo at 32 mg/kg [2]: 79%

CC(C)c1cc2c(=O)n3cc(C(=O)O)ccc3nc2s1
inhibition in vivo at 16 mg/kg [3]: 89% | inhibition in vivo at 32 mg/kg [2]: 54%

CC(C)c1cc(C(C)C)c2nc3sc(C(=O)O)cn3c(=O)c2c1
ED50 [1]: > 10 mg/kg | inhibition in vivo at 16 mg/kg [3]: 100% | inhibition in vivo at 32 mg/kg [2]: 19%

CC(C)Cc1ccc2nc3sc(C(=O)O)cn3c(=O)c2c1
ED50 [4]: 2.12 mg/kg | inhibition in vivo at 32 mg/kg [5]: 78% | inhibition in vivo at 16 mg/kg [6]: 62%

C[S+]([O-])c1ccc2nc3sc(C(=O)O)cn3c(=O)c2c1 (stereo unspecified)
ED50 [7]: 1.82 mg/kg | inhibition in vivo at 32 mg/kg [8]: 67% | inhibition in vivo at 16 mg/kg [6]: 55%

CSc1ccc2nc3sc(C(=O)O)cn3c(=O)c2c1
ED50 [9]: 0.12 mg/kg | inhibition in vivo at 32 mg/kg [2]: 87%

CC(C)c1cn2c(=O)c3cc(C(=O)O)ccc3nc2s1
ED50 [10]: 0.11 mg/kg | inhibition in vivo at 32 mg/kg [2]: 100% | inhibition in vivo at 16 mg/kg [6]: 100%

CCC(C)c1ccc2nc3sc(C(=O)O)cn3c(=O)c2c1 (stereo unspecified)
ED50 [11]: 1.01 mg/kg | inhibition in vivo at 32 mg/kg [5]: 64% | inhibition in vivo at 16 mg/kg [6]: 59%

COc1cc2nc3sc(C(=O)O)cn3c(=O)c2cc1OC
inhibition in vivo at 16 mg/kg [6]: 89%

O=C(O)c1cn2c(=O)c3ccccc3nc2s1
inhibition in vivo at 16 mg/kg [6]: 80%

O=C(O)c1ccc2nc3sccn3c(=O)c2c1
ED50 [1]: > 10 mg/kg | inhibition in vivo at 32 mg/kg [2]: 66% | inhibition in vivo at 16 mg/kg [6]: 62%

COc1ccc2nc3sc(C(=O)O)cn3c(=O)c2c1
ED50 [12]: 0.07 mg/kg | inhibition in vivo at 32 mg/kg [2]: 78% | inhibition in vivo at 16 mg/kg [6]: 100%

CC(C)c1ccc2nc3sc(C(=O)O)cn3c(=O)c2c1
ED50 [13]: 0.33 mg/kg | inhibition in vivo at 16 mg/kg [3]: 89% | inhibition in vivo at 32 mg/kg [2]: 86%

O=C(O)c1cn2c(=O)c3cc(C4CC4)ccc3nc2s1
inhibition in vivo at 32 mg/kg [2]: 100% | ED50 [14]: 6.02 mg/kg

O=C(O)c1cc(=O)c2c(OCC(O)COc3cccc4oc(C(=O)O)cc(=O)c34)cccc2o1 [CROMOLYN SODIUM]
inhibition in vivo at 32 mg/kg [5]: 18% | inhibition in vivo at 8 mg/kg [15]: 46%
